Patent US20250000093A1, “HETEROCYCLIC COMPOUNDS FOR THE CONTROL OF INVERTEBRATE PESTS” (BASF SE, priority 2021, published 2025)

Assays:
Assay type in all cases: in vivo
Myzus persicae = assay: B.2 Green peach aphid, systemic test on artificial diet in microtiter plates; conditions: for mortality at 2500 ppm: Myzus persicae, 72 h, adult aphids, 3 days, read-out: mortality in comparison with untreated controls; for B.2, 10 ppm / B.2, 25 ppm: comparative experiment, aphid mortality, unit not given
Source text: B.2 Green Peach Aphid (Myzus persicae)
For evaluating control of green peach aphid (Myzus persicae) through systemic means the test unit consisted of 96-well-microtiter plates containing liquid artificial diet under an artificial mem brane.
The compounds were formulated using a solution containing 75% v/v water and 25% v/v DMSO. Different concentrations of formulated compounds were pipetted into the aphid diet, using a custom built pipetter, at two replications.
After application, 5-8 adult aphids were placed on the artificial membrane inside the microtiter plate wells. The aphids were then allowed to suck on the treated aphid diet and incubated at about 23±1° C. and about 50±5% relative humidity for 3 days. Aphid mortality and fecundity was then visually assessed.

Dichromothrips corbetti = assay: B.6 Orchid thrips, floral-immersion technique; conditions: for mortality at 300 ppm: Dichromothrips corbetti, adult thrips, 72 hours after treatment, read-out: mortality in comparison with untreated controls; for B.6, 100 ppm: comparative experiment, thrips mortality, unit not given
Protocol: B.6 Orchid Thrips (Dichromothrips corbetti)
Dichromothrips corbetti adults used for bioassay were obtained from a colony maintained continuously under laboratory conditions. For testing purposes, the test compound is diluted in a 1:1 mixture of acetone:water (vol:vol), plus Kinetic HV at a rate of 0.01% v/v.
Thrips potency of each compound was evaluated by using a floral-immersion technique. All petals of individual, intact orchid flowers were dipped into treatment solution and allowed to dry in Petri dishes. Treated petals were placed into individual re-sealable plastic along with about 20 adult thrips. All test arenas were held under continuous light and a temperature of about 28° C. for duration of the assay. After 3 days, the numbers of live thrips were counted on each petal. The percent mortality was recorded 72 hours after treatment.

Heliothis virescens = assay: B.3 Tobacco budworm, insect diet and eggs in microtiter plates; conditions: 120 h, egg and larval mortality, 5 days, read-out: mortality in comparison with untreated controls
Protocol: B.3 Tobacco Budworm (Heliothis virescens)
For evaluating control of tobacco budworm (Heliothis virescens) the test unit consisted of 96-well-microtiter plates containing an insect diet and 15-25 H. virescens eggs.
The compounds were formulated using a solution containing 75% v/v water and 25% v/v DMSO. Different concentrations of formulated compounds were sprayed onto the insect diet at 10 μl, using a custom-built micro atomizer, at two replications.
After application, microtiter plates were incubated at about 28±1° C. and about 80±5% relative humidity for 5 days. Egg and larval mortality was then visually assessed.

Anthonomus grandis = assay: B.4 Boll weevil, insect diet and eggs in microtiter plates; conditions: 120 h, egg and larval mortality, 5 days, read-out: mortality in comparison with untreated controls
Protocol: B.4 Boll Weevil (Anthonomus grandis)
For evaluating control of boll weevil (Anthonomus grandis) the test unit consisted of 96-well-microtiter plates containing an insect diet and 5-10 A. grandis eggs.
The compounds were formulated using a solution containing 75% v/v water and 25% v/v DMSO. Different concentrations of formulated compounds were sprayed onto the insect diet at 5 μl, using a custom-built micro atomizer, at two replications.
After application, microtiter plates were incubated at about 25±1° C. and about 75±5% relative humidity for 5 days. Egg and larval mortality was then visually assessed.

Spodoptera eridania = assay: B.5 Southern armyworm, 2nd instar larvae, sprayed lima bean plants; conditions: 96 h, 4 days after treatment, read-out: mortality in comparison with untreated controls
Protocol: B.5. Southern Armyworm (Spodoptera eridania), 2nd Instar Larvae
The active compounds were formulated by a Tecan liquid handler in 100% cyclohexanone as a 10,000 ppm solution supplied in tubes. The 10,000 ppm solution was serially diluted in 100% cyclohexanone to make interim solutions. These served as stock solutions for which final dilutions were made by the Tecan in 50% acetone:50% water (v/v) into 10 or 20 ml glass vials. A nonionic surfactant (Kinetic®) was included in the solution at a volume of 0.01% (v/v). The vials were then inserted into an automated electrostatic sprayer equipped with an atomizing nozzle for application to plants/insects. Lima bean plants (variety Sieva) were grown 2 plants to a pot and selected for treatment at the 1st true leaf stage. Test solutions were sprayed onto the foliage by an automated electrostatic plant sprayer equipped with an atomizing spray nozzle. The plants were dried in the sprayer fume hood and then removed from the sprayer. Each pot was placed into perforated plastic bags with a zip closure. Ten to 11 armyworm larvae were placed into the bag and the bags zipped closed. Test plants were maintained in a growth room at about 25° C. and about 20-40% relative humidity for 4 days, avoiding direct exposure to fluorescent light (14:10 light:dark photoperiod) to prevent trapping of heat inside the bags. Mortality and reduced feeding were assessed 4 days after treatment, compared to untreated control plants.

Plutella xylostella = assay: B.1 Diamond back moth, cabbage leaf dip test; conditions: foliar, 3rd instar larvae, 72 hours after treatment, read-out: mortality in comparison with untreated controls
Protocol: B.1 Diamond Back Moth (Plutella xylostella)
The active compound was dissolved at the desired concentration in a mixture of 1:1 (vol:vol) distilled water:acetone. Surfactant (Kinetic HV) was added at a rate of 0.01% (vol/vol). The test solution was prepared on the day of use.
Leaves of cabbage were dipped in test solution and air-dried. Treated leaves were placed in petri dishes lined with moist filter paper and inoculated with ten 3rd instar larvae. Mortality was recorded 72 hours after treatment. Feeding damages were also recorded using a scale of 0-100%.

Aedes aegypti = assay: B.7 Yellow fever mosquito, larvae in microtiter plates; conditions: comparative experiment, larval mortality after 2 days, unit not given
Protocol: B.7 Yellow Fever Mosquito (Aedes aegypti)
For evaluating control of yellow fever mosquito (Aedes aegypti) the test unit consisted of 96-well-microtiter plates containing 200 μl of tap water per well and 5-15 freshly hatched A. aegypti larvae.
The active compounds were formulated using a solution containing 75% (v/v) water and 25% (v/v) DMSO. Different concentrations of formulated compounds or mixtures were sprayed onto the insect diet at 2.5 μl, using a custom-built micro atomizer, at two replications.
After application, microtiter plates were incubated at 28±1° C., 80±5% RH for 2 days. Larval mortality was then visually assessed.

Compound CC(NC(=O)c1cc(Br)cc(C(F)(F)F)c1)c1nccnc1-n1ncn(C)c1=O (stereo not shown) [I-1, 3-bromo-N-[1-[3-(4-methyl-5-oxo-1,2,4-triazol-1-yl)pyrazin-2-yl]ethyl]-5-(trifluoromethyl)benzamide] has a mortality at 2500 ppm (Myzus persicae) of at least 75%, a mortality at 300 ppm (Dichromothrips corbetti) of at least 75% and a mortality at 2500 ppm (Heliothis virescens) of at least 75%. The mortality at 2500 ppm (Anthonomus grandis) was at least 75%.

With CC(NC(=O)c1cc(Br)cc(C(F)(F)F)c1)c1nccnc1-n1ncn(CC(F)(F)F)c1=O (stereo not shown) [I-2, 3-bromo-N-[1-[3-[5-oxo-4-(2,2,2-trifluoroethyl)-1,2,4-triazol-1-yl]pyrazin-2-yl]ethyl]-5-(trifluoromethyl)benzamide] the mortality at 2500 ppm (Myzus persicae) was at least 75%, the mortality at 300 ppm (Dichromothrips corbetti) was at least 75% and the mortality at 2500 ppm (Heliothis virescens) was at least 75%. The mortality at 2500 ppm (Anthonomus grandis) was at least 75%.

Compound COc1ccc(Cn2cnn(-c3nccnc3C(C)NC(=O)c3cc(Br)cc(S(C)(=O)=O)c3)c2=O)cc1 (stereo not shown) [I-3, 3-bromo-N-[1-[3-[4-[(4-methoxyphenyl)methyl]-5-oxo-1,2,4-triazol-1-yl]pyrazin-2-yl]ethyl]-5-methylsulfonyl-benzamide] has a mortality at 2500 ppm (Myzus persicae) of at least 75%.

CC(NC(=O)c1cc(Br)cc(S(C)(=O)=O)c1)c1nccnc1-n1ncn(CC2CC2)c1=O (stereo not shown) [I-5, 3-bromo-N-[1-[3-[4-(cyclopropylmethyl)-5-oxo-1,2,4-triazol-1-yl]pyrazin-2-yl]ethyl]-5-methylsulfonyl-benzamide] gave a mortality at 300 ppm (Spodoptera eridania) of at least 75%, a mortality at 2500 ppm (Myzus persicae) of at least 75% and a mortality at 2500 ppm (Anthonomus grandis) of at least 75%. It also gave a mortality at 300 ppm (Plutella xylostella) of at least 75%.

With CC(c1nccnc1-n1ncn(C)c1=O)N(C)C(=O)c1cc(Br)cc(S(C)(=O)=O)c1 (stereo not shown) [I-8, 3-bromo-N-methyl-N-[1-[3-(4-methyl-5-oxo-1,2,4-triazol-1-yl)pyrazin-2-yl]ethyl]-5-methylsulfonyl-benzamide] the mortality at 2500 ppm (Myzus persicae) was at least 75%.

In the case of CC(NC(=O)c1cc(C(F)(F)F)cc(C(F)(F)F)c1)c1nccnc1-n1ncn(C)c1=O (stereo not shown) [I-10], the mortality at 300 ppm (Spodoptera eridania) is reported as at least 75%, the “B.2, 10 ppm” value (Myzus persicae) is reported as 100 and the mortality at 2500 ppm (Myzus persicae) is reported as at least 75%. The “B.6, 100 ppm” value (Dichromothrips corbetti) was 100, the mortality at 300 ppm (Dichromothrips corbetti) was at least 75% and the mortality at 2500 ppm (Heliothis virescens) was at least 75%. The mortality at 2500 ppm (Anthonomus grandis) was at least 75% and the mortality at 300 ppm (Plutella xylostella) was at least 75%.

With CC(c1nccnc1-n1ncn(CC(F)(F)F)c1=O)N(CC1CC1)C(=O)c1cc(C(F)(F)F)cc(C(F)(F)F)c1 (stereo not shown) [I-15] the mortality at 300 ppm (Spodoptera eridania) was at least 75%, the “B.2, 25 ppm” value (Myzus persicae) was 100 and the mortality at 2500 ppm (Myzus persicae) was at least 75%. For the same compound, the mortality at 300 ppm (Dichromothrips corbetti) was at least 75%, the mortality at 2500 ppm (Heliothis virescens) was at least 75% and the “B.7, 10 ppm” value (Aedes aegypti) was 100. The mortality at 2500 ppm (Anthonomus grandis) was at least 75% and the mortality at 300 ppm (Plutella xylostella) was at least 75%.

For CC(NC(=O)c1cc(C(F)(F)F)cc(C(F)(F)F)c1)c1nccnc1-n1cncn1 (stereo not shown) [WO2021/037614 P46, reference compound], the “B.2, 10 ppm” value (Myzus persicae) was 25 and the “B.6, 100 ppm” value (Dichromothrips corbetti) was 0.

For CC(c1nccnc1-n1cncn1)N(CC1CC1)C(=O)c1cc(C(F)(F)F)cc(C(F)(F)F)c1 (stereo not shown) [WO2021/037614 P48, reference compound], the “B.2, 25 ppm” value (Myzus persicae) was 50 and the “B.7, 10 ppm” value (Aedes aegypti) was 0.
